Measurements as given in US20040049072A1, “RXR modulators with improved pharmacologic profile” (priority 1999, published 2004).
Entries after “also recorded” stand apart in the source; their conditions may differ. Where two headings read alike, the source gives them in different places.

Assays:
RXRα:RAR heterodimer = molecular target: T1, RXRα:RAR heterodimer (Homo sapiens, UniProt P19793); experiment: RXR:RAR heterodimer co-transfection assay in CV-1 cells; assay type: cell-based
T1 construct: expressed in transfected cells; host or cells: CV-1 cells
T1 sequence (P19793 1-462): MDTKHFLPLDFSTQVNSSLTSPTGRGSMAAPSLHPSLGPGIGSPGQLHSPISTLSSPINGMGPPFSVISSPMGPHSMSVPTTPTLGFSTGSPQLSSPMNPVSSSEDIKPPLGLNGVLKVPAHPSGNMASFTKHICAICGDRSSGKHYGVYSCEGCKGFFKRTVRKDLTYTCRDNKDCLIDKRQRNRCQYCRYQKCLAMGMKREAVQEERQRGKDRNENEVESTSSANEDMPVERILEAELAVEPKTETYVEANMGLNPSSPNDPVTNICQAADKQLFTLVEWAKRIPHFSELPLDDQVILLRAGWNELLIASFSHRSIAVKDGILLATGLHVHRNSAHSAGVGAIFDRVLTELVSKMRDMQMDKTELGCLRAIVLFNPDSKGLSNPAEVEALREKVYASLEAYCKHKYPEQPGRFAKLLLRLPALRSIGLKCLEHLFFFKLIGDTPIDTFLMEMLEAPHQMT
Procedure: (§1) For determination of agonist activity in the context of the RXR:RAR heterodimer or the RXR:PPARγ heterodimer, media containing compounds of the present invention in concentrations ranging from 10^−10 to 10^−5 M were added to the cells.
(§2) Compounds of the present invention were also tested for the ability to synergize with a PPARγ agonist in the context of an RXR heterodimer. […] Efficacy of the compounds of the present invention in the agonist and synergy assays was calculated as the maximum response obtained over the range of the dose response curve relative to the maximum response obtained by the reference agonist. Antagonist efficacy was determined as a function (%) of maximal inhibition.
However, when RAR is occupied, typical RXR agonists activate the heterodimer. […] To examine the effects of the compounds of the present invention on the transcriptional properties of the RXR:RAR heterodimer, a heterodimer cotransfection assay as described above was employed.

RXRα homodimer (RXR:RXR) = molecular target: T2, RXRα homodimer (RXR:RXR) (Homo sapiens, UniProt P19793); experiment: RXR homodimer co-transfection assay in CV-1 cells; assay type: cell-based; details: CV-1, read-out: RXR:RAR CV-1 (%) Ag.
T2 sequence (P19793 1-462): T1 sequence (P19793 1-462)
Text: In the co-transfection assay, cloned cDNA for one or more IRs (e.g., human RARα, RXRα, or PPARγ), alone or in combination (i.e. for heterodimer assays) under the control of a constitutive promoter (e.g., the SV 40, RSV or CMV promoter) is introduced by transfection (a procedure to introduce exogenous genes into cells) into a background cell substantially devoid of endogenous IRs. These introduced gene(s) direct the recipient cells to make the IR protein(s) of interest. A further gene is also introduced (co-transfected) into the same cells in conjunction with the IR gene(s). This further gene, comprising the cDNA for a reporter protein, such as firefly luciferase (LUC), controlled by an appropriate hormone responsive promoter containing a hormone response element (HRE). This reporter plasmid functions as a reporter for the transcriptional-modulating activity of the target IR(s). Thus, the reporter acts as a surrogate for the products (mRNA then protein) normally expressed by a gene under control of the target receptor(s) and their native hormone(s).
Exposing the transfected cells to an agonist ligand compound increases reporter activity in the transfected cells. This activity can be conveniently measured, e.g., by increasing luciferase production and enzymatic activity, which reflects compound-dependent, IR-mediated increases in reporter transcription. […] Increasing concentrations of an antagonist will decrease the reporter signal (e.g., luciferase production). The co-transfection assay is therefore useful to detect both agonists and antagonists of specific IRs. Furthermore, it determines not only whether a compound interacts with a particular IR, but whether this interaction mimics (agonizes) or blocks (antagonizes) the effects of native or synthetic regulatory molecules on target gene expression, as well as the specificity and strength of this interaction.
The receptor expression plasmid was cotransfected along with a reporter plasmid at 50 ng/well, the internal control plasmid pRS-β-Gal at 50 ng/well and filler DNA, pGEM, at 90 ng/well.
Six hours after transfection, media was removed and the cells were washed with phosphate-buffered saline (PBS). Media containing compounds of the present invention in concentrations ranging from 10^−10 to 10^−5 M were added to the cells. […] Retinoids were dissolved in dimethylsulfoxide for use in the transcriptional activation assays. Two to three replicates were used for each sample. Transfections and subsequent procedures were performed on a Biomek 1000 automated workstation.
After 40 hours, the cells were washed with PBS, lysed with a detergent-based buffer and assayed for LUC and β-Gal activities using a luminometer or spectrophotometer, respectively. For each replicate, the normalized response (NR) was calculated as: […]
The mean and standard error of the mean (SEM) of the NR were calculated. Data were plotted as the response of the compound compared to the reference compounds over the range of the dose-response curve. […] Antagonist activity was determined by testing the amount of LUC expression in the presence of the RXR agonists described above at the EC50 concentration for such known compounds. […] In addition, the efficacy of antagonists was determined as a function (%) of maximal inhibition.

RXRα:PPARγ heterodimer = molecular target: T3, RXRα:PPARγ heterodimer (Homo sapiens, UniProt P19793); experiment: RXR:PPARγ heterodimer co-transfection assay in CV-1 cells; assay type: cell-based
T3 construct: expressed in transfected cells; host or cells: CV-1 cells
T3 sequence (P19793 1-462): T1 sequence (P19793 1-462)
T3 sequence (P37231 1-505 partner): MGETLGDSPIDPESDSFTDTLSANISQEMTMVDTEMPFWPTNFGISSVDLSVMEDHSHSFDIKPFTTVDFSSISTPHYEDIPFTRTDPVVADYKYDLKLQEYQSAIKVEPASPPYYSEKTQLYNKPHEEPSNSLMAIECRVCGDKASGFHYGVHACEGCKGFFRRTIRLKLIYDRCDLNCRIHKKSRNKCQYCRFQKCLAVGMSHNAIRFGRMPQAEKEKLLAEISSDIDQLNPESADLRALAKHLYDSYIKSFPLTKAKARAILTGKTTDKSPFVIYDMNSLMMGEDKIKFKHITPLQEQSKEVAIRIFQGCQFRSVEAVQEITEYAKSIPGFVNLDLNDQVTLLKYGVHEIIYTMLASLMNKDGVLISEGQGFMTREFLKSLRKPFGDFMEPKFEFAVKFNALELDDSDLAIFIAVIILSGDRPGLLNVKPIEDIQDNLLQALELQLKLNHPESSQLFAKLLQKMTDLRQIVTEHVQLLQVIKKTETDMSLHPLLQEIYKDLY
Procedure: as §1, §2
To examine the effects of the compounds of the present invention on the transcriptional properties of the RXR:PPARγ, a heterodimer cotransfection assay as described above was employed.

RXRα = molecular target: T4, RXRα (Homo sapiens, UniProt P19793); experiment: RXRα binding (competition with tritiated LGD1069)
T4 sequence (P19793 1-462): T1 sequence (P19793 1-462)
Procedure: Non-specific binding was defined as that binding remaining in the presence of 500 nM of the appropriate unlabelled compound. At the end of the incubation period, bound ligand was separated from free. The amount of bound tritiated retinoid was determined by liquid scintillation counting of an aliquot (700 μL) of the supernatant fluid or the hydroxylapatite pellet.
After correcting for non-specific binding, IC50 values were determined. […] The IC50 value was determined graphically from a log-logit plot of the data. The Ki values were determined by application of the Cheng-Prussof equation to the IC50 values, the labeled ligand concentration and the Kd of the labeled ligand.

db/db mouse = db/db mouse study (rodent model of Type II diabetes); details: for inhibition in vivo at 30 mg/kg: Mus musculus, po, 168 h, read-out: db/db mouse Glu. (D7); for db/db mouse Trigs. (D3): plasma triglycerides as % of control values, day 3, 30 mg/kg/day; for insulin sensitizing activity with thyroid axis suppression and triglyceride elevations: rodent models of Type II Diabetes
Procedure: Mice (obtained from Jackson Laboratory), ZDF rats (obtained from Genetic Models Inc.) and fa/fa rats (obtained from either Charles River, or Harlan) were maintained on 12-hour light/dark cycle. […] Compounds were administered at the specified doses by oral gavage on the morning of each day of any experiment. Blood samples were obtained 3 hours after dosing from fed animals under anesthesia and collected into heparinized capillary tubes from the tail vein.

[1] = CV-1, read-out: RXR:RAR CV-1 (%) Ag.
[2] = Table 2, from IC50 by Cheng-Prussof equation, tritiated LGD1069, read-out: Bind RXRα Ki
[3] = Table 2, maximal response in presence of 100 nM BRL49653 relative to BRL49653 alone

| Compound | Emax (RXRα:RAR heterodimer; [1]) [%] | Emax (RXRα homodimer (RXR:RXR)) [%] | Ki (RXRα; [2]) [nM] | inhibition in vivo at 30 mg/kg (db/db mouse) [%] | db/db mouse Trigs. (D3) (db/db mouse) [%] | insulin sensitizing activity with thyroid axis suppression and triglyceride elevations (db/db mouse) | also measured |
| --- | --- | --- | --- | --- | --- | --- | --- |
| CCOc1c(\C(C)=C/C=C/C(C)=C/C(=O)O)cc(C(F)(F)C(F)(F)F)cc1C(C)C [Compound L15] | 1 | 44 | 6 | 80 | 156 | maintain the desirable insulin sensitizing activity and minimize both the suppression of the thyroid axis and triglyceride elevations | PPARγ CV-1 (%) Synergy (RXRα:PPARγ heterodimer): 99% |
| CCc1cc(-c2ccsc2/C=C/C(C)=C/C(=O)O)c(OCCCF)c(C2CCCC2)c1 [Compound L17] | 4 | 3 |  | 29 | 75 | maintain the desirable insulin sensitizing activity and minimize both the suppression of the thyroid axis and triglyceride elevations | PPARγ CV-1 (%) Synergy (RXRα:PPARγ heterodimer; [3]): 88%; Ki (RXRα): 8 nM |
| C/C(=C/C=C/C(C)=C/C(=O)O)c1cc(-c2ccccc2F)cc(C(C)C)c1OCC(F)F [Compound L19] | 2 | 3 | 1 | 68 | 187 | maintain the desirable insulin sensitizing activity and minimize both the suppression of the thyroid axis and triglyceride elevations | PPARγ CV-1 (%) Synergy (RXRα:PPARγ heterodimer): 47% |
| CCCCCOc1c(\C(C)=C/C=C/C(C)=C/C(=O)O)cc(C(C)C)cc1C(C)C [Compound L7] |  |  |  |  |  | maintain the desirable insulin sensitizing activity and eliminate or reduce both the suppression of the thyroid axis and triglyceride elevations; also recorded: maintain the desirable insulin sensitizing activity and minimize both the suppression of the thyroid axis and triglyceride elevations |  |
| CN(C)C(=N)N=C(N)N [metformin, reference compound] |  |  |  |  |  |  | efficacy over 3 subsequent weeks (db/db mouse; 7 week old db/db mice, 300 mg/kg daily oral gavage): decreases; plasma glucose (db/db mouse; 7 week old db/db mice, 300 mg/kg daily oral gavage, maximum effect after first week): lowers plasma glucose |
| C/C(=C\c1ccc(C(=O)O)cc1)c1ccc2c(c1)C(C)(C)CCC2(C)C [TTNPB, (E)-4-[2-(5,6,7,8-tetrahydro-5,5,8,8-tetramethyl-2-naphthalenyl)-1-propenyl]benzoic acid, reference compound] |  |  |  |  |  |  | Emax (RXRα:RAR heterodimer; CV-1, read-out: RXRα:RAR Heterodimer Cotransfection Assay Agonist Efficacy (%)): 115%; agonist activity on the RXR:RAR heterodimer (RXRα:RAR heterodimer; compound alone): strongly transactivate |
| CCc1cc(-c2ccsc2/C=C/C(C)=C/C(=O)O)c(OCCCC(F)(F)F)c(C(C)(C)C)c1 [Compound L16] | 2 | 1 |  | 37 | 79 | maintain the desirable insulin sensitizing activity and minimize both the suppression of the thyroid axis and triglyceride elevations | PPARγ CV-1 (%) Synergy (RXRα:PPARγ heterodimer; [3]): 64%; Ki (RXRα): 2 nM |
| C/C(=C/C=C/C(C)=C/C(=O)O)c1cc(C(C)(C)C)cc(C(C)(C)C)c1OCC(F)(F)F [Compound L23] | 7 | 1 | 27 | 53 |  |  |  |
| C/C(=C/C=C/C(C)=C/C(=O)O)c1cc(C(C)(C)C)cc(C(C)(C)C)c1OCC(F)F [Compound L13] |  |  |  | 54 | 109 | maintain the desirable insulin sensitizing activity and minimize both the suppression of the thyroid axis and triglyceride elevations |  |
| CCC(C)(C)c1cc(\C(C)=C/C=C/C(C)=C/C(=O)O)c(OCC(F)F)c(C(C)(C)CC)c1 [Compound L18] | 1 | 2 | 29 | 45 | 134 | maintain the desirable insulin sensitizing activity and minimize both the suppression of the thyroid axis and triglyceride elevations | PPARγ CV-1 (%) Synergy (RXRα:PPARγ heterodimer; [3]): 69% |
| CCCCOc1c(C2=C(/C=C/C(C)=C/C(=O)O)CCC2)cc(C(C)C)cc1C(C)C [Compound L9] |  |  |  |  |  | maintain the desirable insulin sensitizing activity and minimize both the suppression of the thyroid axis and triglyceride elevations |  |
| CN(CCOc1ccc(CC2SC(=O)NC2=O)cc1)c1ccccn1 (centres unmarked) [BRL 49653, reference compound] |  |  |  |  |  |  | RXRα:PPARγ Heterodimer Cotransfection Assay Agonist Efficacy (%) (RXRα:PPARγ heterodimer; maximal response relative to response of BRL 49653): 100% |
| CCCOc1c(C2=C(/C=C/C(C)=C/C(=O)O)CCC2)cc(C(C)C)cc1C(C)C [Compound L8] |  |  |  |  |  | maintain the desirable insulin sensitizing activity and minimize both the suppression of the thyroid axis and triglyceride elevations |  |
